Assay results taken from US8114589B2, “Self-addressable self-assembling microelectronic integrated systems, component devices, mechanisms, methods, and procedures for molecular biological analysis and diagnostics” (Gamida For Life B.V., priority 1996, dated 2012).

Key:
[1] = Conductivity measurements of transport buffers; format: physicochemical; conditions: for Average/Std. Deviation / Measurement 1 / Measurement 2 / Measurement 3: conductivity
[2] = system: target DNA to the specific capture DNA; assay: DNA hybridization sensitivity on the APEX chip; conditions: normal DNA
[3] = Buffer conductivity and pH measurements; format: physicochemical; set-up: conductivity: unit not given here; conditions: for conductivity: RT; for pH: in water at room temperature
Procedure: Buffer Conductivity and pH Measurements—The conductivities of test buffer solutions utilized for transport and hybridization were measured at RT using an Accumet 1.0 cm^−1 glass conductivity cell connected to an Accumet Model 50 pH/Ion/Conductivity meter (Fisher Scientific). Buffer pH values were obtained using an Accu-pHast variable temperature combination electrode and the same model meter.

[4] = system: btrRCA5 to ATA5 capture oligonucleotide; assay: Accumulation and electronic hybridization in test buffers; conditions: for support of sequence specific electronic hybridization: in words
Procedure: Microelectronic Chips, Permeation Layer and Instrumentation—These have been described previously with the following exception. The permeation layer employed herein has an underlayer of agarose beneath the top streptavidin-containing agarose layer (approximately one micron in total thickness). To make the underlayer, […] glyoxal agarose (2%) was spun on at 2000 rpms for 20 sec prior to the application of the streptavidin-agarose layer. In brief, the 5580 series APEX chip used for these experiments consists of a 5×5 array of […] circular microelectrodes with […] microelectrodes at each corner of the array. Chips were mounted on a micromanipulator stage and the microelectrodes activated by a power supply and appropriately controlled relay switches. Fluorescently labeled oligonucleotides on the chip were visualized using oblique illumination with two 594 nm HeNe lasers and the images were quantified using either NIH Image or IPLab Spectrum software packages.
Accumulation and Hybridization—Two biotinylated capture oligonucleotides, ATA5 and ATA4 were electronically transported and localized at adjacent microelectrodes. The solution was removed and the chip washed 3-4× in test buffer. Buffers employed in these studies are listed in Table 3 and were utilized at the listed pH values and concentrations presented.
The L-isomers of amino acids were used, unless otherwise noted. The chip was equilibrated in test buffer for 5-10 min. Then fresh buffer containing 10 nM BODIPY-Texas Red labeled RCA5 (btrRCA5), an oligonucleotide complementary to ATA5 but not ATA4 (RS paper) was applied.
The […] microelectrodes were employed as cathodes and one microelectrode within the array used as the corresponding anode. Accumulation was assessed by sourcing a 500 nA constant current to individual microelectrodes for 30 sec and monitoring the accumulation of fluorescence at the positively-biased (anode) site in the microelectrode array. Signal arising from non-fluorescent sources (ie. thermal noise, etc.) was subtracted. Experiments examining the effect of different currents upon signal accumulation were conducted in a similar fashion except that the applied current varied from 100 nA to 1 mA. […] For the comparison between conductivities of various buffers, the data is presented as fold increase over initial fluorescence to account for chip-to-chip variation as well as laser illumination variations in signal levels. For other experiments, the data is presented as attomol product versus time, after converting^2 the observed fluorescence intensity to moles of labeled oligonucleotide.
Following accumulation at one microelectrode location, the buffer was removed and fresh buffer containing btrRCA5 applied. An adjacent microelectrode was then sourced in a similar fashion. Upon completion, the buffer was removed and the chip washed 5-7× with test buffer without btrRCA5. The pair of previously targeted microelectrodes were then illuminated and the fluorescence present at each site quantified. Control experiments utilized a bodipy-Texas Red labeled oligonucleotide complementary to ATA4 to verify the integrity and concentration of the ATA4 capture oligonucleotide. Percent hybridization efficiency was calculated as follows: (complementary oligonucleotide signal−noncomplementary signal)/(signal present immediately prior to the end of the applied current)×100.

DNA = DNA transport (accumulation) on the APEX chip; conditions: in words, same field conditions
[5] = Buffer capacity, pH and conductivity of buffers used on the APEX chip
[6] = cited from earlier work; for pl: Table 3
[7] = system: btr-RCA5 fluorescent DNA probe; assay: Fluorescent DNA checkerboard addressing; conditions: bias reversed every 6 seconds, 80 micron microlocations
[8] = system: Reporter DNA to DNA1 or PNA1 capture; assay: Hybridization of phosphodiester-linked oligonucleotides versus PNA analogues; conditions: 50 mM buffer
[9] = not told

For `N[C@@H](CS)C(=O)O` [Cysteine], which conductivity [1] is on record?
The conductivity was about 23 μS/cm.

What about the “Average/Std. Deviation” value [1] of the same molecule?
Its value is 22.7 +/− 5.09 μS/cm.

And the “Measurement 1” value [1]?
The value was 27.4 μS/cm.

And the “Measurement 2” value [1]?
The value was 17.3 μS/cm.

And the “Measurement 3” value [1]?
Its value is 23.5 μS/cm.

And the “Hybridization Sensitivity of DNA” value [2]?
Its value is 7.5×10^10 targets.

What about the conductivity ([3]; 50 mM) of the same molecule?
The conductivity was 9.0 +/− 0.9.

What about the pH ([3]; 50 mM) of the same molecule?
Its pH is 5.08.

And the conductivity ([3]; 250 mM)?
The conductivity was 21.8 +/− 4.4.

And the “support of sequence specific electronic hybridization” value [4]?
Its value is “difficult to evaluate because of poor signal accumulation”.

And the transport (DNA)?
Its transport is “excellent transport”.

What about the conductivity [5] of the same molecule?
Its conductivity is 25.0 μS.

What about the PH ([5]; NaPO4: 20 mM adjusted to pH 7.4) of the same molecule?
Its PH is 5.2.

And the pK1 ([6]; Table 2)?
Its pK1 is “pK1 - 1.7”.

And the pK2 ([6]; Table 2)?
The pK2 was “pK2 - 8.3”.

What about the pK3 ([6]; Table 2) of the same molecule?
The pK3 was “pK3 - 10.8”.

And the pl [6]?
Its pl is 5.02.

What about the pI [6] of the same molecule?
The pI was 5.02.

Which “checkerboard addressing and concentration of fluorescent DNA probe” value [7] does the source give for `O=C([O-])CCC(=O)[O-].[Na+].[Na+]` [5 mM NaSuccinate, sodium succinate] here?
Its value is “Rapid (6 second) checkerboard addressing and concentration of the btr-RCA5 fluorescent DNA probe was demonstrated”.

For water [Milli-Q water], which “checkerboard addressing and concentration of fluorescent DNA probe” value [7] is on record?
The value was “Rapid (6 second) checkerboard addressing and concentration of the btr-RCA5 fluorescent DNA probe was demonstrated”.

Which results are given for `NCCCC(=O)O` [GABA, g-amino-butyric acid]?
DNA:DNA hybridization ([8]; 200 nA): no hybridization was observed; PNA:DNA hybridization ([8]; 200 nA): Hybridization in GABA was seen; hybridization with either PNA:DNA or DNA:DNA duplexes ([8]; 500 nA): lack of hybridization; conductivity ([3]; 50 mM): 5.6 +/− 0.6; pH ([3]; 50 mM): 6.76; support of sequence specific electronic hybridization [4]: neither GABA, b-alanine, nor glycine was capable of supporting sequence specific hybridization; pl [6]: 7.30

Which “Average/Std. Deviation” value [1] does the source give for `O=S(=O)(O)CCN1CCN(CCO)CC1` [250 mM HEPES, HEPES] here?
The value was 147.6 +/− 9.07 μS/cm.

And the “Measurement 1” value [1]?
Its value is 141 μS/cm.

And the “Measurement 2” value [1]?
Its value is 144 μS/cm.

What about the “Measurement 3” value [1] of the same molecule?
The value was 158 μS/cm.

What about the “Average/Std. Deviation” value ([1]; listed as 25 mM HEPES) of the same molecule?
The value was 9.7 +/− 0.71 μS/cm.

What about the “Measurement 1” value ([1]; listed as 25 mM HEPES) of the same molecule?
The value was 9.16 μS/cm.

What about the “Measurement 2” value ([1]; listed as 25 mM HEPES) of the same molecule?
Its value is 9.44 μS/cm.

What about the “Measurement 3” value ([1]; listed as 25 mM HEPES) of the same molecule?
The value was 10.5 μS/cm.

And the “checkerboard addressing and concentration of fluorescent DNA probe” value [7]?
The value was “Rapid (6 second) checkerboard addressing and concentration of the btr-RCA5 fluorescent DNA probe was demonstrated”.

For `c1c[nH]cn1` [imidazole], which conductivity ([3]; 50 mM) is on record?
The conductivity was 17.6 +/− 1.6.

What about the pH ([3]; 50 mM) of the same molecule?
Its pH is 9.08.

What about the hybridization efficiency ([4]; [(specific hybridization)/(transported)] × 100) of the same molecule?
Its hybridization efficiency is 4.0.

What about the transported ([4]; fluorescent signal at completion of electronic targeting, value +/− SEM, 50 mM buffer) of the same molecule?
The transported was 528 +/− 63.

What about the specific hybridization ([4]; value +/− SEM, 50 mM buffer) of the same molecule?
Its specific hybridization is 21.2 +/− 6.6 attomol.

And the “pH above the surface of the permeation layer” value [9]?
The value was over 5.

With `O=C([O-])CC(O)(CC(=O)[O-])C(=O)[O-].[Na+].[Na+].[Na+]` [3.3 mM NaCitrate, sodium citrate] as the molecule, how does the “Average/Std. Deviation” value [1] read?
Its value is 986 +/− 38.1 μS/cm.

What about the “Measurement 1” value [1] of the same molecule?
The value was 964 μS/cm.

What about the “Measurement 2” value [1] of the same molecule?
Its value is 1.03 mS/cm.

And the “Measurement 3” value [1]?
Its value is 964 μS/cm.

And the “checkerboard addressing and concentration of fluorescent DNA probe” value [7]?
The value was “Rapid (6 second) checkerboard addressing and concentration of the btr-RCA5 fluorescent DNA probe was demonstrated”.
